How the values were obtained:
HDAC6 human recombinant = HDAC6 human recombinant (Homo sapiens (Human), UniProt Q9UBN7); test: HDAC enzyme activity inhibition (in vitro), HDAC6 assay; assay type: biochemical; details: samples at 0.1, 1, 10, 100 and 1000 nM; 37° C. 60 minutes; fluorescence Ex 390, Em 460
HDAC1 = HDAC1 (Homo sapiens (Human), UniProt Q13547); test: HDAC enzyme activity inhibition (in vitro), HDAC1 Fluorimetric Drug Discovery Assay Kit; assay type: biochemical; details: samples at 100, 1000 and 10000 nM; 37° C. 60 minutes; fluorescence Ex 390, Em 460
Sequence of HDAC1 (Q13547 whole entry): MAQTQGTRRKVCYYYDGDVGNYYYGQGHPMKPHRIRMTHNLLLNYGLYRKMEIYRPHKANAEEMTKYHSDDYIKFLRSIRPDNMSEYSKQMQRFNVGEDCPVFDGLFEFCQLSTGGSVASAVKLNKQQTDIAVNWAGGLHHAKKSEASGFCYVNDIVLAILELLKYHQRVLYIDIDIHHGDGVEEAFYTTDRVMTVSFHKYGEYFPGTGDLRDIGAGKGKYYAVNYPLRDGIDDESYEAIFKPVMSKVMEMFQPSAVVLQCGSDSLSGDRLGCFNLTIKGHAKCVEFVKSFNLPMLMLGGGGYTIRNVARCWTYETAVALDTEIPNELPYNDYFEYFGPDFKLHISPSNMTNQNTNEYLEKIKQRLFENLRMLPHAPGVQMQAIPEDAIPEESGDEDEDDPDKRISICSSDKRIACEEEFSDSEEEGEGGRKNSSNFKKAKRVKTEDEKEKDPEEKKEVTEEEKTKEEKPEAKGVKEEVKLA

Sequence of HDAC6 human recombinant (Q9UBN7 whole entry): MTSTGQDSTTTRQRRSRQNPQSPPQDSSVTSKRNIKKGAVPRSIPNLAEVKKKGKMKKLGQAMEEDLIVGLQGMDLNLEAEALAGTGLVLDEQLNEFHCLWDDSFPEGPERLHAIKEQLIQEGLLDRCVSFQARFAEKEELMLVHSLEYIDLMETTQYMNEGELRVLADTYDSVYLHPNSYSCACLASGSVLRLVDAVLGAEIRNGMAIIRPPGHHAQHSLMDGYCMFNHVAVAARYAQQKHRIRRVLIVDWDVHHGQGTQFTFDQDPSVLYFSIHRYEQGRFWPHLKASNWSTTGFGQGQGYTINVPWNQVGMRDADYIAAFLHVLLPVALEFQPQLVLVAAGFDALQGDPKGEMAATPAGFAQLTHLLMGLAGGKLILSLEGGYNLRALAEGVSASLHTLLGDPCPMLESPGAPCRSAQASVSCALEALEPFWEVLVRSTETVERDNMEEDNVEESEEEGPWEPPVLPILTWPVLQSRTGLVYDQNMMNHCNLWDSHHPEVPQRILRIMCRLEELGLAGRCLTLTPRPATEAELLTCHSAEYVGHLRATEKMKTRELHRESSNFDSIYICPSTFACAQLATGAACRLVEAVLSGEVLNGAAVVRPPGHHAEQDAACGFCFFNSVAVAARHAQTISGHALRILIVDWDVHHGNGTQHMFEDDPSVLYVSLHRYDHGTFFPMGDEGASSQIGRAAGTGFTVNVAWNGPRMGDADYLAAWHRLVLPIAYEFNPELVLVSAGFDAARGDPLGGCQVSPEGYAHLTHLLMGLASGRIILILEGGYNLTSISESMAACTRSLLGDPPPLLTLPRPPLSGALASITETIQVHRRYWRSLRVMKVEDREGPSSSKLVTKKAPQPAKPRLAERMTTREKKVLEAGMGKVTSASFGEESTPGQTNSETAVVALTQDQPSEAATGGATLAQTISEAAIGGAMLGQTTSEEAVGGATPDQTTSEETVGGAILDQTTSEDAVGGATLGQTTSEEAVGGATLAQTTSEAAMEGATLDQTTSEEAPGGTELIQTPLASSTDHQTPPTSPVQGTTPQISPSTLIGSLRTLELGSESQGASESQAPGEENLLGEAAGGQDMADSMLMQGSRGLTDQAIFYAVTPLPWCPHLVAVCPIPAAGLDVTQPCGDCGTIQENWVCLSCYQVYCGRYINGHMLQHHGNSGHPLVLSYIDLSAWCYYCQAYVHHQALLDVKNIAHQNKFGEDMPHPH

| Structure (SMILES) | IC50 (HDAC6 human recombinant) | IC50 (HDAC1) |
| --- | --- | --- |
| Cn1c(=O)n(Cc2ccc(-c3nnc(C(F)F)o3)cn2)c(=O)c2ccc(-c3ccco3)cc21 [Compound 98, 3-((5-(5-(difluoromethyl)-1,3,4-oxadiazole-2-yl)pyridine-2-yl)methyl)-7-(furan-2-yl)-1-methylquinazoline-2,4(1H,3H)-dione] | 47 nM | > 10000 nM |
| Cc1ccc(-c2cccc3c2C(=O)N(Cc2ccc(-c4nnc(C(F)F)o4)cn2)C(=O)C3(C)C)o1 [Compound 93, 2-((5-(5-(difluoromethyl)-1,3,4-oxadiazole-2-yl)pyridine-2-yl)methyl)-4,4-dimethyl-8-(5-methylfuran-2-yl)isoquinoline-1,3(2H,4H)-dione] | 143 nM | > 10000 nM |
| CC1(C)C(=O)N(Cc2ccc(-c3nnc(C(F)F)o3)cn2)C(=O)c2ccc(N3C[C@@H]4C[C@H]3CN4S(C)(=O)=O)cc21 [Compound 58, 2-((5-(5-(difluoromethyl)-1,3,4-oxadiazole-2-yl)pyridine-2-yl)methyl)-4,4-dimethyl-6-((1S,4S)-5-(methylsulfonyl)-2,5-diazabicyclo[2.2.1]heptane-2-yl)isoquinoline-1,3(2H,4H)-dione] | 14 nM | > 10000 nM |
| CCCN1CCC(c2ccc3c(c2)C(=O)N(Cc2ccc(-c4nnc(C(F)F)o4)cn2)C(=O)C3(C)C)CC1 [Compound 143, 2-((5-(5-(difluoromethyl)-1,3,4-oxadiazole-2-yl)pyridine-2-yl)methyl)-4,4-dimethyl-7-(1-propylpiperidine-4-yl) isoquinoline-1,3 (2H,4H)-dione] | 21 nM | > 10000 nM |
| CN1CCC(c2ccc3c(c2)C(=O)N(Cc2ccc(-c4nnc(C(F)F)o4)cn2)C(=O)C3(C)C)CC1 [Compound 54, 2-((5-(5-(difluoromethyl)-1,3,4-oxadiazole-2-yl)pyridine-2-yl)methyl)-4,4-dimethyl-7-(1-methylpiperidine-4-yl)isoquinoline-1,3(2H,4H)-dione] | 42 nM | > 10000 nM |
| CC1(C)C(=O)N(Cc2ccc(-c3nnc(C(F)F)o3)cn2)C(=O)c2ccc(C3CCN(CC4CCOCC4)CC3)cc21 [Compound 62, 2-((5-(5-(difluoromethyl)-1,3,4-oxadiazole-2-yl)pyridine-2-yl)methyl)-4,4-dimethyl-6-(1-((tetrahydro-2H-pyran-4-yl)methyl)piperidine-4-yl)isoquinoline-1,3(2H,4H)-dione] | 61 nM | > 10000 nM |
| CC1(C)C(=O)N(Cc2ccc(-c3nnc(C(F)F)o3)cc2)C(=O)c2ccccc21 [Compound 6, 2-(4-(5-(difluoromethyl)-1,3,4-oxadiazole-2-yl)benzyl)-4,4-dimethylisoquinoline-1,3(2H,4H)-dione] | 647 nM | > 10000 nM |
| CC(C)(C)OC(=O)N1CC=C(c2ccc3c(c2)C(=O)N(Cc2ccc(-c4nnc(C(F)F)o4)cn2)C(=O)C3(C)C)CC1 [Compound 53, tert-butyl 4-(2-((5-(5-(difluoromethyl)-1,3,4-oxadiazole-2-yl)pyridine-2-yl)methyl)-4,4-dimethyl-1,3-dioxo-1,2,3,4-tetrahydroisoquinoline-7-yl)-3,6-dihydropyridine-1(2H)-carboxylate] | 427 nM | > 10000 nM |
| O=C1c2ccccc2C2(CCC2)C(=O)N1Cc1ccc(-c2nnc(C(F)F)o2)cn1 [Compound 4, 2′-((5-(5-(difluoromethyl)-1,3,4-oxadiazole-2-yl)pyridine-2-yl)methyl)-1′H-spiro[cyclobutane-1,4′-isoquinoline]-1′,3′(2′H)-dione] | 32 nM | > 10000 nM |
| Cn1c(=O)n(Cc2ccc(-c3nnc(C(F)F)o3)cn2)c(=O)c2cc(F)ccc21 [Compound 70, 3-((5-(5-(difluoromethyl)-1,3,4-oxadiazole-2-yl)pyridine-2-yl)methyl)-6-fluoro-1-methylquinazoline-2,4(1H,3H)-dione] | 59 nM | > 10000 nM |
| Cc1noc(C)c1-c1cccc2c1C(=O)N(Cc1ccc(-c3nnc(C(F)F)o3)cn1)C(=O)C2(C)C [Compound 96, 2-((5-(5-(difluoromethyl)-1,3,4-oxadiazole-2-yl)pyridine-2-yl)methyl)-8-(3,5-dimethylisooxazole-4-yl)-4,4-dimethylisoquinoline-1,3(2H,4H)-dione] | 88 nM | > 10000 nM |
| CCN1CCN(c2ccc3c(c2)C(C)(C)C(=O)N(Cc2ccc(-c4nnc(C(F)F)o4)cn2)C3=O)CC1 [Compound 39, 2-((5-(5-(difluoromethyl)-1,3,4-oxadiazole-2-yl)pyridine-2-yl)methyl)-6-(4-ethylpiperazine-1-yl)-4,4-dimethylisoquinoline-1,3(2H,4H)-dione] | 18 nM | > 10000 nM |
| CCN1CCC(c2ccc3c(c2)C(=O)N(Cc2ccc(-c4nnc(C(F)F)o4)cn2)C(=O)C3(C)C)CC1 [Compound 68, 2-((5-(5-(difluoromethyl)-1,3,4-oxadiazole-2-yl)pyridine-2-yl)methyl)-7-(1-ethylpiperidine-4-yl)-4,4-dimethylisoquinoline-1,3(2H,4H)-dione] | 20 nM | > 10000 nM |
| O=c1c2ccccc2n(CCN2CCOCC2)c(=O)n1Cc1ccc(-c2nnc(C(F)F)o2)cn1 [Compound 20, 3-((5-(5-(difluoromethyl)-1,3,4-oxadiazole-2-yl)pyridine-2-yl)methyl)-1-(2-morpholinoethyl)quinazoline-2,4(1H,3H)-dione] | 159 nM | > 10000 nM |
| CC1(C)C(=O)N(Cc2ccc(-c3nnc(C(F)F)o3)cn2)C(=O)c2c(-c3ccncc3)cccc21 [Compound 84, 2-((5-(5-(difluoromethyl)-1,3,4-oxadiazole-2-yl)pyridine-2-yl)methyl)-4,4-dimethyl-8-(pyridine-4-yl)isoquinoline-1,3(2H,4H)-dione] | 79 nM | > 10000 nM |
| Cn1c(=O)n(Cc2ccc(-c3nnc(C(F)F)o3)cn2)c(=O)c2cc(-c3cccc(F)c3)ccc21 [Compound 90, 3-((5-(5-(difluoromethyl)-1,3,4-oxadiazole-2-yl)pyridine-2-yl)methyl)-6-(3-fluorophenyl)-1-methylquinazoline-2,4(1H,3H)-dione] | 41 nM | > 10000 nM |
| CC1(C)C(=O)N(Cc2ccc(-c3nnc(C(F)F)o3)cn2)C(=O)c2c(-c3ccco3)cccc21 [Compound 82, 2-((5-(5-(difluoromethyl)-1,3,4-oxadiazole-2-yl)pyridine-2-yl)methyl)-8-(furan-2-yl)-4,4-dimethylisoquinoline-1,3(2H,4H)-dione] | 92 nM | > 10000 nM |
| CC(C)(C)OC(=O)N1CCN(c2ccc3c(c2)C(C)(C)C(=O)N(Cc2ccc(-c4nnc(C(F)F)o4)cn2)C3=O)CC1 [Compound 25, tert-butyl 4-(2-((5-(5-(difluoromethyl)-1,3,4-oxadiazole-2-yl)pyridine-2-yl)methyl)-4,4-dimethyl-1,3-dioxo-1,2,3,4-tetrahydroisoquinoline-6-yl)piperazine-1-carboxylate] | 158 nM | > 10000 nM |
| CCCN1CCN(c2ccc3c(c2)C(C)(C)C(=O)N(Cc2ccc(-c4nnc(C(F)F)o4)cn2)C3=O)CC1 [Compound 148] | 32 nM | > 10000 nM |
| CC1(C)C(=O)N(Cc2ccc(-c3nnc(C(F)F)o3)cn2)C(=O)c2c(-c3ccoc3)cccc21 [Compound 95, 2-((5-(5-(difluoromethyl)-1,3,4-oxadiazole-2-yl)pyridine-2-yl)methyl)-8-(furan-3-yl)-4,4-dimethylisoquinoline-1,3(2H,4H)-dione] | 59 nM | > 10000 nM |

From US12440484B2, “1,3,4-oxadiazole homophthalimide derivative compounds as histone deacetylase 6 inhibitor, and the pharmaceutical composition comprising the same” (Chong Kun Dang Pharmaceutical Corp., priority 2019, dated 2025)
